# Laboratory results reported in patent US11896733B2, “Apparatuses, methods, and compositions for the treatment and prophylaxis of chronic wounds” (KCI Licensing, Inc., priority 2010, dated 2024).
# Tests used:
# [1] = molecular target: T1, MMP-9 (Homo sapiens, UniProt P14780); assay: MMP-9 Colorimetric Drug Discovery Kit (Biomol): MMP-9 activity reduction by dressings; assay type: biochemical; conditions: compared to control samples with no MMP-9 inhibitor activity
# T1 construct: purchased Biomol
# T1 sequence (P14780 107-444 limits assumed): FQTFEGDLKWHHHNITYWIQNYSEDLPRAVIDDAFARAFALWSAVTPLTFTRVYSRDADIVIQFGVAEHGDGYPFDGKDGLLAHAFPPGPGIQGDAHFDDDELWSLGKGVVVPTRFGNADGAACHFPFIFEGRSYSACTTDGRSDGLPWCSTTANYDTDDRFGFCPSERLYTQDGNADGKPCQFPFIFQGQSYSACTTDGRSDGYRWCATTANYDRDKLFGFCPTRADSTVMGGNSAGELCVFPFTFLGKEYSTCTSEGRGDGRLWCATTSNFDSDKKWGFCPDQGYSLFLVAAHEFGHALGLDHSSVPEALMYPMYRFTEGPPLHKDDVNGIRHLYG
# From the text: A National Diagnostics Hydrogen Peroxide Assay Kit was used to evaluate the antioxidant properties of foam pads and the formulated coated foam pads containing alpha-lipoic acid. Foam pads coated only with gelatin were used as controls. FIG. 7 is a graph showing the percentage of hydrogen peroxide reduction due to reaction with alpha-lipoic acid. An MMP-9 Colorimetric Drug Discovery Kit (Biomol) was used to evaluate the MMP inhibiting/inactivating ability of the formulated foam pads containing alpha-lipoic acid/gelatin (ALA) and gelatin alone (GF GEL). The controls were uncoated foam pads and known potent MMP inactivating drug, NNGH (C13H20N2O5S, available from Enzo® Life Sciences). […] FIG. 9 is a graph showing the release of alpha-lipoic acid from the coating on the foam pads. The coating delivers approximately 70% of the total alpha-lipoic acid within the first day, while the remaining alpha-lipoic acid is released during the next 2-3 days.
# Coated polyurethane foam (GranuFoam®) scaffolds described above in Examples 1-2 were further assayed for their ability to reduce MMP activity as compared to non-coated collagen based scaffold such as the Biostep™ and Promogran™ products.
# [2] = Release of alpha-lipoic acid from the coating on foam pads; assay type: physicochemical; conditions: gelatin coating on foam pads (FIG. 9)
# From the text: Polyurethane open-cell reticulated foam pads were selected as the scaffold 140 and were immersed in a solution containing 1.5 wt % of alpha-lipoic acid and 4.5 wt % 225-bloom beef gelatin (and, where applicable, 0.3% EDTA). Gelatin was used as a biocompatible binding agent with good oxygen barrier and sustained release properties for alpha-lipoic acid as well as for its ability to act as a sacrificial substrate for surrounding gelatinases. Alpha-lipoic acid was pre-dissolved in ethanol and then mixed into the final solution. The foam pads were immersed for a sufficient amount of time to coat the pathways formed within the open-cell reticulated foam as described above with respect to the scaffold 140. After immersion, the foam pads were withdrawn, compressed to remove excess solution, and dried to a constant weight. In some cases, sodium benzoate was added to the formulation as a preservative. Dried foams comprised, by weight, 2% alpha-lipoic acid, 6% gelatin and, where applicable, 0.4% EDTA.
# A National Diagnostics Hydrogen Peroxide Assay Kit was used to evaluate the antioxidant properties of foam pads and the formulated coated foam pads containing alpha-lipoic acid. Foam pads coated only with gelatin were used as controls. FIG. 7 is a graph showing the percentage of hydrogen peroxide reduction due to reaction with alpha-lipoic acid. […]
SMILES,% MMP-9 activity reduction ([1]; Table 1 (first of two separate experiments)) [%],% MMP-9 activity reduction ([1]; Table 2 (second of two separate experiments)) [%],time over which the remaining alpha-lipoic acid is released ([2]; after the first day) [days],fraction of the total alpha-lipoic acid delivered by the coating ([2]; within the first day)
COc1ccc(S(=O)(=O)N(CC(=O)NO)CC(C)C)cc1 [NNGH],90.2,103.8,–,–
O=C(O)CCCCC1CCSS1 (stereo not drawn) [alpha-lipoic acid],–,–,2 to 3,approximately 70%
